Measured values taken from US20040106545A1, “Compounds and methods for modulating cell adhesion” (priority 1996, published 2004).
Read-outs that look alike come from different tables or passages of the source. Positions of bridges follow the written chain, without caps; N, C: chain ends. Residues, ends and D or L forms follow the SMILES beside them.

How the values were obtained:
HMVEC = type: cell-based, human; details: 3 h
Summary of the method: (§1)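 Human primary endothelial cells, fibroblast lines (IAFp2, WI-38) and cancer lines (MDA-MB231, PC-3) receive the CHAVC peptide or the CHGVC control at ≤100 μM. Viability is scored by MTT and DNA synthesis by ^3H-thymidine uptake.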

HUVEC = type: cell-based, human; details: 3 h
Summary of the method: as §1

IAFp2 = type: cell-based, human; details: 3 h
Summary of the method: as §1

MDA-MB231 [1] = type: cell-based, human; details: 3 h
Summary of the method: as §1

PC-3 [2] = type: cell-based, human; details: 3 h
Summary of the method: as §1

WI-38 = type: cell-based, human; details: 3 h
Summary of the method: as §1

MDA-MB231 [3] = assay: Cytotoxicity, MTT assay, MDA-MB231; type: cell-based, human
Summary of the method: as §1

PC-3 [4] = assay: Cytotoxicity, MTT assay, PC-3; type: cell-based, human
Summary of the method: as §1

Solubility in RPMI = type: physicochemical; details: 1 mM
N-cadherin [5] = biological target: T1, N-cadherin (Gallus gallus, UniProt P10288); assay: Neurite outgrowth inhibition, rat neurons (Example 21); type: cell-based; details: read-out: % Inhibition of neurite outgrowth; 250 μg/mL
T1 construct: expressed in transfected cells; host or cells: 3T3 fibroblasts (monolayer)
T1 sequence (P10288 165-912): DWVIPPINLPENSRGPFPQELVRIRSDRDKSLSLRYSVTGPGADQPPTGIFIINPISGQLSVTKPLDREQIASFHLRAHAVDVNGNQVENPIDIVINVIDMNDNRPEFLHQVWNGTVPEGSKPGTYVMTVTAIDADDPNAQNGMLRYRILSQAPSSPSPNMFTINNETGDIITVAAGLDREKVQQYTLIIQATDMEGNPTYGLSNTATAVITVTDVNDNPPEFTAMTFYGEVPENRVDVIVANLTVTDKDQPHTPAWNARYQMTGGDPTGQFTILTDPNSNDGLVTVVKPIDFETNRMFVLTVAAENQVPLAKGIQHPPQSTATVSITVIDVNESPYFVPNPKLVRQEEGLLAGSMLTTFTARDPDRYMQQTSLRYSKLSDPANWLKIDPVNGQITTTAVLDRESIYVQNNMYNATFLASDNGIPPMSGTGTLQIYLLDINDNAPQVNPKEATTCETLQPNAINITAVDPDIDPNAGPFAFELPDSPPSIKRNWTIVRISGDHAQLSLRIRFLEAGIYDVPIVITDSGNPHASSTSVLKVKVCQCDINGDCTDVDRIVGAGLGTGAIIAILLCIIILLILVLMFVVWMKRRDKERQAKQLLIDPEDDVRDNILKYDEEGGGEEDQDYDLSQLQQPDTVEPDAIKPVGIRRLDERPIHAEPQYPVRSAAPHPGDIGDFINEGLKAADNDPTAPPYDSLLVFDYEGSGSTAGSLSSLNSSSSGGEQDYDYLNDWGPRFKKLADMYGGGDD

N-cadherin [6] = biological target: T2, N-cadherin (Homo sapiens, UniProt P19022); details: cited from earlier work
T2 sequence (P19022 160-906): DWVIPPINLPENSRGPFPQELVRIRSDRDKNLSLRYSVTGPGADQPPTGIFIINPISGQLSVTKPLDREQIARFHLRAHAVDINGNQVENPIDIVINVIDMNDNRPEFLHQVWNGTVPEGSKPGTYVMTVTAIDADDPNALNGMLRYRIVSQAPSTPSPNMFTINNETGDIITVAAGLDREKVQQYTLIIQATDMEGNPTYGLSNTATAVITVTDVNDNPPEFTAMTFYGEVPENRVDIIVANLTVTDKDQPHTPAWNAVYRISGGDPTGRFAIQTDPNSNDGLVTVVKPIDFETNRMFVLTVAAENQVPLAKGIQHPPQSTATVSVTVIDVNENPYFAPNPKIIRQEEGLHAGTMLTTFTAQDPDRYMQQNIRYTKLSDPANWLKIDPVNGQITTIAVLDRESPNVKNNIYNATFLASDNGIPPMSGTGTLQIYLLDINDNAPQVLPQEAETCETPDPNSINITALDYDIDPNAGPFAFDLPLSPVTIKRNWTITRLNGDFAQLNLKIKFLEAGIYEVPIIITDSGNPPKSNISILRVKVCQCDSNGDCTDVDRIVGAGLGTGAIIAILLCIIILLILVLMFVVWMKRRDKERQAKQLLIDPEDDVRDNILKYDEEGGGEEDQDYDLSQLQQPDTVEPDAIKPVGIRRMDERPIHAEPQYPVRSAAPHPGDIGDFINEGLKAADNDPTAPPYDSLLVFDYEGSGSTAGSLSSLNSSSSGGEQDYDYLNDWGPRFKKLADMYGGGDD

Molecule	IC50 (HMVEC) [µM]	IC50 (HUVEC) [µM]	IC50 (IAFp2) [µM]	IC50 (MDA-MB231 [1]) [µM]	IC50 (PC-3 [2]) [µM]	IC50 (WI-38) [µM]	IC50 (MDA-MB231 [3]) [µM]	IC50 (PC-3 [4]) [µM]	solubility in RPMI (Solubility in RPMI)	inhibition at 250 µg/mL (N-cadherin [5]) [%]	stimulation of neurite outgrowth (N-cadherin [6])
CC(=O)N[C@H]1CSSC[C@@H](C(N)=O)NC(=O)[C@H](CO)NC(=O)[C@H](C(C)C)NC(=O)[C@H](C)NC(=O)[C@H](Cc2c[nH]cn2)NC1=O [N—Ac—CHAVSC—NH2, N-Ac-Cys-His-Ala-Val-Ser-Cys-NH2] (Ac-CHAVSC-NH2; disulfide 1-6 (inferred))	> 100	57	> 100	52	> 100	> 100	> 100	> 100	*Incompletely soluble in RPMI at 1 mM	0	–
N—AC-CHAVDINGHAVDIC-NH2: cyclic peptide presenting two HAV motifs in an antiparallel fashion (Williams et al. 2002) (Ac-CHAVDINGHAVDIC-NH2; disulfide 1-14 (inferred))	–	–	–	–	–	–	–	–	–	–	capable of stimulating neurite outgrowth
